The values that follow come from patent US11661426B2, “Imidazole-containing inhibitors of ALK2 kinase” (BioCryst Pharmaceuticals, Inc., priority 2017, dated 2023).

For this assay, the target named is ALK2 (Homo sapiens (Human), UniProt Q04771). Put plainly: ALK2 inhibition, LanthaScreen Eu Kinase Binding Assay (ThermoFisher Scientific / Life Technologies). Conditions: read-out: Measured Ki (IC50) Value for Compounds: IC50. As for the experimental part: Biochemical assays to measure the inhibitory effects of the compounds were performed by ThermoFisher Scientific (Life Technologies). ALK2 inhibition was tested using LanthaScreen™ Eu Kinase Binding Assay screening protocol.
ALK2, sequence (Q04771 21-509): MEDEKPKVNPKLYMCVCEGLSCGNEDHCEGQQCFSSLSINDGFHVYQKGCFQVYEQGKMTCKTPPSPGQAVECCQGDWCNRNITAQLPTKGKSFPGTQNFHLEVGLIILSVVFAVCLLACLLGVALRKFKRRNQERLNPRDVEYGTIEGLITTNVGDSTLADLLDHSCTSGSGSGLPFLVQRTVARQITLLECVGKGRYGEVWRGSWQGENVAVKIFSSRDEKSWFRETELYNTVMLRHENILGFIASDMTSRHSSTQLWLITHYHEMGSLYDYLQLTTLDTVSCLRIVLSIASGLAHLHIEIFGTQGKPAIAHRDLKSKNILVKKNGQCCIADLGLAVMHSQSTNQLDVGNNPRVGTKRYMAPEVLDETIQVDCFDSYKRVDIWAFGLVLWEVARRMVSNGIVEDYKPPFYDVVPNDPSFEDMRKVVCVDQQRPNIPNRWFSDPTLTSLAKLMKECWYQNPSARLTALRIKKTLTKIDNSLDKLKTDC
(In general: In TR-FRET formats the signal depends on donor and acceptor labels being close together.)
As a reminder, the IC50 is the concentration needed to halve the response being measured. Take `COc1cc(C(=O)N2CCC[C@H]2CO)cc(-n2cnc(Nc3nc(N4CCC[C@H]4CO)nn4cccc34)c2)c1` [Compound 416f, ((S)-2-(hydroxymethyl)pyrrolidin-1-yl)(3-(4-((2-((S)-2-(hydroxymethyl)pyrrolidin-1-yl)pyrrolo[2,1-f][1,2,4]triazin-4-yl)amino)-1H-imidazol-1-yl)-5-methoxyphenyl)methanone]: the IC50 was in the range of 100 to 1000 nM.
The result for `OC[C@@H]1CCCN1c1nc(Nc2cn(-c3ccc(OC(F)(F)F)c(Cl)c3)cn2)c2cccn2n1` [Compound 417e, (S)-(1-(4-((1-(3-chloro-4-(trifluoromethoxy)phenyl)-1H-imidazol-4-yl)amino)pyrrolo[2,1-f][1,2,4]triazin-2-yl)pyrrolidin-2-yl)methanol] reads greater than 1000 nM; that for `COc1cc(-c2nnc(Nc3nc(N4CCC[C@H]4CO)c4cccn4n3)o2)cc(OC)c1OC` [Compound 418b, (S)-(1-(2-((5-(3,4,5-trimethoxyphenyl)-1,3,4-oxadiazol-2-yl)amino)pyrrolo[2,1-f][1,2,4]triazin-4-yl)pyrrolidin-2-yl)methanol], greater than 1000 nM; that for `COc1cc(-n2cnc(Nc3nc(C(=O)N4CCCC4)c4cccn4n3)c2)cc(OC)c1OC` [Compound 419b, pyrrolidin-1-yl(2-((1-(3,4,5-trimethoxyphenyl)-1H-imidazol-4-yl)amino)pyrrolo[2,1-f][1,2,4]triazin-4-yl)methanone], 100 to 1000 nM.
The result for `OC[C@@H]1CCCN1c1nc(Nc2cn(-c3ccc(OC(F)(F)F)c(Br)c3)cn2)c2cccn2n1` [Compound 420e, (S)-(1-(4-((1-(3-bromo-4-(trifluoromethoxy)phenyl)-1H-imidazol-4-yl)amino)pyrrolo[2,1-f][1,2,4]triazin-2-yl)pyrrolidin-2-yl)methanol] reads greater than 1000 nM; that for `OC[C@@H]1CCCN1c1nc(Nc2cn(-c3ccncc3)cn2)c2cccn2n1` [Compound 421e, (S)-(1-(4-((1-(pyridin-4-yl)-1H-imidazol-4-yl)amino)pyrrolo[2,1-f][1,2,4]triazin-2-yl)pyrrolidin-2-yl)methanol], less than 100 nM; that for `COc1cc(-n2cnc(Nc3nc(N4CCN(CCO)CC4)nc4sccc34)c2)cc(OC)c1OC` [Compound 422a, 2-(4-(4-((1-(3,4,5-trimethoxyphenyl)-1H-imidazol-4-yl)amino)thieno[2,3-d]pyrimidin-2-yl)piperazin-1-yl)ethanol], less than 100 nM.
Under `OC[C@@H]1CCCN1c1nc(Nc2cn(-c3ccc4c(c3)OCCO4)cn2)c2cccn2n1` [Compound 423e, (S)-(1-(4-((1-(2,3-dihydrobenzo[b][1,4]dioxin-6-yl)-1H-imidazol-4-yl)amino)pyrrolo[2,1-f][1,2,4]triazin-2-yl)pyrrolidin-2-yl)methanol] stands 100 to 1000 nM.
In the case of `OC[C@@H]1CCCN1c1nc(Nc2cn(-c3cccc4c3OCO4)cn2)c2cccn2n1` [Compound 424e, (S)-(1-(4-((1-(benzo[d][1,3]dioxol-4-yl)-1H-imidazol-4-yl)amino)pyrrolo[2,1-f][1,2,4]triazin-2-yl)pyrrolidin-2-yl)methanol], the IC50 is less than 100 nM.
The result for `OC[C@@H]1CCCN1c1nc(Nc2cn(-c3cccc(O)c3O)cn2)c2cccn2n1` [Compound 424f, (S)-3-(4-((2-(2-(hydroxymethyl)pyrrolidin-1-yl)pyrrolo[2,1-f][1,2,4]triazin-4-yl)amino)-1H-imidazol-1-yl)benzene-1,2-diol] reads 100 to 1000 nM; that for `OC[C@@H]1CCCN1c1nc(Nc2cn(-c3ccc4c(c3)OCO4)cn2)c2cccn2n1` [Compound 425e, (S)-(1-(4-((1-(benzo[d][1,3]dioxol-5-yl)-1H-imidazol-4-yl)amino)pyrrolo[2,1-f][1,2,4]triazin-2-yl)pyrrolidin-2-yl)methanol], less than 100 nM.
The result for `COc1cc(C(=O)N(C)C)cc(-n2cnc(Nc3nc(N4CCC[C@H]4CO)nn4cccc34)c2)c1` [Compound 426c, (S)-3-(4-((2-(2-(hydroxymethyl)pyrrolidin-1-yl)pyrrolo[2,1-f][1,2,4]triazin-4-yl)amino)-1H-imidazol-1-yl)-5-methoxy-N,N-dimethylbenzamide] reads less than 100 nM.
Take `CNC(=O)c1cc(OC)cc(-n2cnc(Nc3nc(N4CCC[C@H]4CO)nn4cccc34)c2)c1` [Compound 427b, (S)-3-(4-((2-(2-(hydroxymethyl)pyrrolidin-1-yl)pyrrolo[2,1-f][1,2,4]triazin-4-yl)amino)-1H-imidazol-1-yl)-5-methoxy-N-methylbenzamide]: the concentration for half-maximal inhibition (IC50) was less than 100 nM.
The result for `OC[C@@H]1CCCN1c1nc(Nc2cn(-c3ccc4c(c3)OCO4)cn2)c2ccsc2n1` [Compound 428b, (S)-(1-(4-((1-(benzo[d][1,3]dioxol-5-yl)-1H-imidazol-4-yl)amino)thieno[2,3-d]pyrimidin-2-yl)pyrrolidin-2-yl)methanol] reads less than 100 nM; that for `NC(=O)[C@@H]1CCCN1c1nc(Nc2cn(-c3ccc4c(c3)OCO4)cn2)c2ccsc2n1` [Compound 429a, (S)-1-(4-((1-(benzo[d][1,3]dioxol-5-yl)-1H-imidazol-4-yl)amino)thieno[2,3-d]pyrimidin-2-yl)pyrrolidine-2-carboxamide], 100 to 1000 nM; that for `COc1cc(-n2cnc(Nc3nc(N4CCC[C@H]4CO)c4cnn(C5CCCCO5)c4n3)c2)cc(OC)c1OC` (stereo partly drawn) [Compound 430b, ((2S)-1-(1-(tetrahydro-2H-pyran-2-yl)-6-((1-(3,4,5-trimethoxyphenyl)-1H-imidazol-4-yl)amino)-1H-pyrazolo[3,4-d]pyrimidin-4-yl)pyrrolidin-2-yl)methanol], less than 100 nM.
The result for `NC(=O)[C@@H]1CCCN1c1nc(Nc2cn(-c3ccc4c(c3)OC(F)(F)O4)cn2)c2ccsc2n1` [Compound 431e, (S)-1-(4-((1-(2,2-difluorobenzo[d][1,3]dioxol-5-yl)-1H-imidazol-4-yl)amino)thieno[2,3-d]pyrimidin-2-yl)pyrrolidine-2-carboxamide] reads greater than 1000 nM.
The result for `OC[C@@H]1CCCN1c1nc(Nc2cn(-c3ccc4c(c3)OC(F)(F)O4)cn2)c2ccsc2n1` [Compound 432a, (S)-(1-(4-((1-(2,2-difluorobenzo[d][1,3]dioxol-5-yl)-1H-imidazol-4-yl)amino)thieno[2,3-d]pyrimidin-2-yl)pyrrolidin-2-yl)methanol] reads 100 to 1000 nM.
On to `OC[C@@H]1CCCN1c1nc(Nc2cn(-c3ccc4c(c3)OC(F)(F)O4)cn2)c2cccn2n1` [Compound 433b, (S)-(1-(4-((1-(2,2-difluorobenzo[d][1,3]dioxol-5-yl)-1H-imidazol-4-yl)amino)pyrrolo[2,1-f][1,2,4]triazin-2-yl)pyrrolidin-2-yl)methanol], for which the IC50 was in the range of 100 to 1000 nM.
Under `OCc1cccc(-n2cnc(Nc3nc(N4CCC[C@H]4CO)nn4cccc34)c2)c1` [Compound 434e, (S)-(1-(4-((1-(3-(hydroxymethyl)phenyl)-1H-imidazol-4-yl)amino)pyrrolo[2,1-f][1,2,4]triazin-2-yl)pyrrolidin-2-yl)methanol] stands less than 100 nM; under `COc1cc(-n2cnc(Nc3nc(N4CCC[C@H]4CO)c4c(C)nn([C@H]5CC[C@H](N)CC5)c4n3)c2)cc(OC)c1OC` [Compound 435e, ((S)-1-(1-((trans)-4-aminocyclohexyl)-3-methyl-6-((1-(3,4,5-trimethoxyphenyl)-1H-imidazol-4-yl)amino)-1H-pyrazolo[3,4-d]pyrimidin-4-yl)pyrrolidin-2-yl)methanol], less than 100 nM; under `OCc1ccc(-n2cnc(Nc3nc(N4CCC[C@H]4CO)nn4cccc34)c2)cc1` [Compound 436e, (S)-(1-(4-((1-(4-(hydroxymethyl)phenyl)-1H-imidazol-4-yl)amino)pyrrolo[2,1-f][1,2,4]triazin-2-yl)pyrrolidin-2-yl)methanol], less than 100 nM.
Under `Cc1cc(-n2cnc(Nc3nc(N4CCC[C@H]4CO)nn4cccc34)c2)ccn1` [Compound 437e, (S)-(1-(4-((1-(2-methylpyridin-4-yl)-1H-imidazol-4-yl)amino)pyrrolo[2,1-f][1,2,4]triazin-2-yl)pyrrolidin-2-yl)methanol] stands less than 100 nM.
For `COc1cc(-n2cnc(Nc3nc(N4CCC[C@H]4CO)c4c(C)nn(CC5CCCCC5)c4n3)c2)cc(OC)c1OC` [Compound 438c, (S)-(1-(1-(cyclohexylmethyl)-3-methyl-6-((1-(3,4,5-trimethoxyphenyl)-1H-imidazol-4-yl)amino)-1H-pyrazolo[3,4-d]pyrimidin-4-yl)pyrrolidin-2-yl)methanol], the IC50 was less than 100 nM.
For the compound `COc1cc(-n2cnc(Nc3nc(N4CCC[C@H]4CO)c4c(C)nn(C5CCCCC5)c4n3)c2)cc(OC)c1OC` [Compound 439c, (S)-(1-(1-cyclohexyl-3-methyl-6-((1-(3,4,5-trimethoxyphenyl)-1H-imidazol-4-yl)amino)-1H-pyrazolo[3,4-d]pyrimidin-4-yl)pyrrolidin-2-yl)methanol], the IC50 was less than 100 nM.
Under `COc1cc(-n2cnc(Nc3nc(N4CCC[C@H]4CO)c4c(C)nn(C5CCCC5)c4n3)c2)cc(OC)c1OC` [Compound 440c, (S)-(1-(1-cyclopentyl-3-methyl-6-((1-(3,4,5-trimethoxyphenyl)-1H-imidazol-4-yl)amino)-1H-pyrazolo[3,4-d]pyrimidin-4-yl)pyrrolidin-2-yl)methanol] stands less than 100 nM; under `OC[C@@H]1CCCN1c1nc(Nc2cn(-c3ccnc4c(F)cccc34)cn2)c2cccn2n1` [Compound 441e, (S)-(1-(4-((1-(8-fluoroquinolin-4-yl)-1H-imidazol-4-yl)amino)pyrrolo[2,1-f][1,2,4]triazin-2-yl)pyrrolidin-2-yl)methanol], less than 100 nM; under `COc1cc(-n2cnc(Nc3nc(N4CCC[C@H]4CO)c4c(C)nn(C5CCC5)c4n3)c2)cc(OC)c1OC` [Compound 442c, (S)-(1-(1-cyclobutyl-3-methyl-6-((1-(3,4,5-trimethoxyphenyl)-1H-imidazol-4-yl)amino)-1H-pyrazolo[3,4-d]pyrimidin-4-yl)pyrrolidin-2-yl)methanol], less than 100 nM.
